molecular target: human JAK1 (a.a. 837-1142); assay: In vitro JAK kinase assay (HTRF, phosphorylation of a biotinylated peptide), JAK1; assay type: biochemical; settings: measured at 1 mM ATP; JAK2 IC50 / JAK1 IC50
Procedure: Compounds herein were tested for inhibitory activity of JAK targets according to the following in vitro assay described in Park et al., Analytical Biochemistry 1999, 269, 94-104. The catalytic domains of human JAK1 (a.a. 837-1142), Jak2 (a.a. 828-1132) and Jak3 (a.a. 781-1124) with an N-terminal His tag were expressed using baculovirus in insect cells and purified. The catalytic activity of JAK1, JAK2 or JAK3 was assayed by measuring the phosphorylation of a biotinylated peptide. The phosphorylated peptide was detected by homogenous time resolved fluorescence (HTRF). […] Reactions were carried out at room temperature for 1 hr and then stopped with 20 μL 45 mM EDTA, 300 nM SA-APC, 6 nM Eu-Py20 in assay buffer (Perkin Elmer, Boston, Mass.). Binding to the Europium labeled antibody took place for 40 minutes and HTRF signal was measured on a Fusion plate reader (Perkin Elmer, Boston, Mass.).

Point of comparison: `N#CCC1(n2ccc(-c3ncnc4[nH]ccc34)c2)CN(C2CCN(C(=O)Nc3ncccc3C(F)(F)F)CC2)C1` [Example 290, 4-{3-(cyanomethyl)-3-[3-(7H-pyrrolo[2,3-d]pyrimidin-4-yl)-1H-pyrrol-1-yl]azetidin-1-yl}-N-[3-(trifluoromethyl)pyridin-2-yl]piperidine-1-carboxamide], “IC50 Ratio JAK2/JAK1” value 3.9. Against it:
- N#CCC1(n2cc(-c3ncnc4[nH]ccc34)cn2)CN(C2CCN(C(=O)c3ccc(-c4ccccc4C#N)c(F)c3)CC2)C1 [Example 124, 4′-[(4-{3-(cyanomethyl)-3-[4-(7H-pyrrolo[2,3-d]pyrimidin-4-yl)-1H-pyrazol-1-yl]azetidin-1-yl}piperidin-1-yl)carbonyl]-2′-fluorobiphenyl-2-carbonitrile] — higher, 8.4
- N#CCC1(n2cc(-c3ncnc4[nH]ccc34)cn2)CN(C2CCN(C(=O)c3ccc(-c4ccc5cccnc5c4)c(F)c3)CC2)C1 [Example 134, {1-[1-(3-fluoro-4-quinolin-7-ylbenzoyl)piperidin-4-yl]-3-[4-(7H-pyrrolo[2,3-d]pyrimidin-4-yl)-1H-pyrazol-1-yl]azetidin-3-yl} acetonitrile] — higher, 6.7
- N#CCC1(n2cc(-c3ncnc4[nH]ccc34)cn2)CN(C2CCN(C(=O)C3CCC(C(F)(F)F)CC3)CC2)C1 (centres unmarked) [Example 98, [3-[4-(7H-pyrrolo[2,3-d]pyrimidin-4-yl)-1H-pyrazol-1-yl]-1-(1-{[4-(trifluoromethyl)cyclohexyl]carbonyl}piperidin-4-yl)azetidin-3-yl] acetonitrile] — lower, 3.7
- N#CCC1(n2cc(-c3c(F)cnc4[nH]ccc34)cn2)CN(C2CCN(C(=O)c3ccc(F)cn3)CC2)C1 [Example 319] — higher, 4.0
- N#CCC1(n2cc(-c3ncnc4[nH]ccc34)cn2)CN(C2CCN(C(=O)C3CCCC3)CC2)C1 [Example 101, {1-[1-(cyclopentylcarbonyl)piperidin-4-yl]-3-[4-(7H-pyrrolo[2,3-d]pyrimidin-4-yl)-1H-pyrazol-1-yl]azetidin-3-yl}acetonitrile] — higher, 8.3
- N#CCC1(n2cc(-c3ncnc4[nH]ccc34)cn2)CN(C2CCN(C(=O)c3ccc(F)c(F)c3)CC2)C1 [Example 35, {1-[1-(3,4-difluorobenzoyl)piperidin-4-yl]-3-[4-(7H-pyrrolo[2,3-d]pyrimidin-4-yl)-1H-pyrazol-1-yl]azetidin-3-yl}acetonitrile] — higher, 6.9
- N#CCC1(n2cc(-c3ncnc4[nH]ccc34)cn2)CN(C2CCN(C(=O)c3cnccn3)CC2)C1 [Example 14, {1-[1-(pyrazin-2-lcarbonyl)piperidin-4-yl]-3-[4-(7H-pyrrolo[2,3-d]pyrimidin-4-yl)-1H-pyrazol-1-yl]azetidin-3-l}acetonitrile] — lower, 3.2
- N#CCC1(n2cc(-c3ncnc4[nH]ccc34)cn2)CN(C2CCN(C(=O)c3cc4cccc(C(F)(F)F)c4s3)CC2)C1 [Example 95, [3-[4-(7H-pyrrolo[2,3-d]pyrimidin-4-yl)-1H-pyrazol-1-yl]-1-(1-{[7-(trifluoromethyl)-1-benzothien-2-yl]carbonyl}piperidin-4-yl)azetidin-3-yl]acetonitrile] — lower, 2.7
- N#CCC1(n2cc(-c3ncnc4[nH]ccc34)cn2)CN(C2CCN(C(=O)c3sc4cc(F)ccc4c3Cl)CC2)C1 [Example 91, {1-{1-[(3-chloro-6-fluoro-1-benzothien-2-yl)carbonyl]piperidin-4-yl}-3-[4-(7H-pyrrolo[2,3-d]pyrimidin-4-yl)-1H-pyrazol-1-yl]azetidin-3-yl}acetonitrile] — lower, 1.7
- N#CCC1(n2ccc(-c3ncnc4[nH]ccc34)c2)CN(C2CCN(C(=O)c3ccc(C#N)cc3F)CC2)C1 [Example 264, 4-[(4-{3-(cyanomethyl)-3-[3-(7H-pyrrolo[2,3-d]pyrimidin-4-yl)-1H-pyrrol-1-yl]azetidin-1-yl}piperidin-1-yl)carbonyl]-3-fluorobenzonitrile] — higher, 9.5
- N#CCC1(n2cc(-c3ncnc4[nH]ccc34)cn2)CN(C2CCN(C(=O)c3c(F)cncc3F)CC2)C1 [Example 61, {1-[1-(3,5-difluoroisonicotinoyl)piperidin-4-yl]-3-[4-(7H-pyrrolo[2,3-d]pyrimidin-4-yl)-1H-pyrazol-1-yl]azetidin-3-yl}acetonitrile] — higher, 4.2
- N#CCC1(n2cc(-c3ncnc4[nH]ccc34)cn2)CN(C2CCN(C(=O)c3cc(F)cc(Cl)c3)CC2)C1 [Example 28, {1-[1-(3-chloro-5-fluorobenzoyl)piperidin-4-yl]-3-[4-(7H-pyrrolo[2,3-d]pyrimidin-4-yl)-1H-pyrazol-1-yl]azetidin-3-yl}acetonitrile] — higher, 8.5
- N#CCC1(n2cc(-c3ncnc4[nH]ccc34)cn2)CN(C2CCN(C(=O)c3ccc(-c4ccc5ccncc5c4)c(F)c3)CC2)C1 [Example 133, {1-[1-(3-fluoro-4-isoquinolin-7-ylbenzoyl)piperidin-4-yl]-3-[4-(7H-pyrrolo[2,3-d]pyrimidin-4-yl)-1H-pyrazol-1-yl]azetidin-3-yl} acetonitrile] — higher, 7.9
- N#CCC1(n2cc(-c3ncnc4[nH]ccc34)cn2)CN(C2CCN(C(=O)c3ccc(-c4ccc(C#N)cc4)cc3)CC2)C1 [Example 126, 4′-[(4-{3-(cyanomethyl)-3-[4-(7H-pyrrolo[2,3-d]pyrimidin-4-yl)-1H-pyrazol-1-yl]azetidin-1-yl}piperidin-1-yl)carbonyl]biphenyl-4-carbonitrile] — higher, 6.3
- N#CCC1(n2cc(-c3ncnc4[nH]ccc34)cn2)CN(C2CCN(C(=O)c3c(F)c(F)cc(F)c3F)CC2)C1 [Example 56, {3-[4-(7H-pyrrolo[2,3-d]pyrimidin-4-yl)-1H-pyrazol-1-yl]-1-[1-(2,3,5,6-tetrafluorobenzoyl)piperidin-4-yl]azetidin-3-yl}acetonitrile] — higher, 8.8
- N#CCC1(n2cc(-c3c(C#N)cnc4[nH]ccc34)cn2)CN(C2CCN(C(=O)c3cc(C(F)(F)F)ncc3Cl)CC2)C1 [Example 341, 4-{1-[1-{1-[5-chloro-2-(trifluoromethyl)isonicotinoyl]piperidin-4-yl}-3-(cyanomethyl)azetidin-3-yl]-1H-pyrazol-4-yl}-1H-pyrrolo[2,3-b]pyridine-5-carbonitrile] — lower, 3.2
- N#CCC1(n2cc(-c3ncnc4[nH]ccc34)cn2)CN(C2CCN(C(=O)c3ccc(C(F)(F)F)c(F)c3)CC2)C1 [Example 52, {1-{1-[3-fluoro-4-(trifluoromethyl)benzoyl]piperidin-4-yl}-3-[4-(7H-pyrrolo[2,3-d]pyrimidin-4-yl)-1H-pyrazol-1-yl]azetidin-3-yl}acetonitrile] — higher, 4.4
- N#CCC1(n2cc(-c3ncnc4[nH]ccc34)cn2)CN(C2CCN(C(=O)Nc3ccccc3Cl)CC2)C1 [Example 163, N-(2-chlorophenyl)-4-{3-(cyanomethyl)-3-[4-(7H-pyrrolo[2,3-d]pyrimidin-4-yl)-1H-pyrazol-1-yl]azetidin-1-yl}piperidine-1-carboxamide] — higher, 12.0
- N#CCC1(n2cc(-c3ncnc4[nH]ccc34)cn2)CN(C2CCN(C(=O)c3cc(C(F)(F)F)ncc3F)CC2)C1 [Example 343, {1-{1-[5-Fluoro-2-(trifluoromethyl)isonicotinoyl]piperidin-4-yl}-3[4-(7H-pyrrolo[2,3-d]pyrimidin-4-yl)-1H-pyrazol-1-yl]azetidin-3-yl}acetonitrile] — higher, 5.5
- N#CCC1(n2cc(-c3ncnc4[nH]ccc34)cn2)CN(C2CCN(Cc3ccnc(Br)c3)CC2)C1 [Example 226, {1-{1-[(2-bromopyridin-4-yl)methyl]piperidin-4-yl}-3-[4-(7H-pyrrolo[2,3-d]pyrimidin-4-yl)-1H-pyrazol-1-yl]azetidin-3-yl}acetonitrile] — lower, 1.9
- N#CCC1(n2cc(-c3ncnc4[nH]ccc34)cn2)CN(C2CCN(C(=O)Nc3ccc(OC(F)(F)F)cc3)CC2)C1 [Example 182, 4-{3-(cyanomethyl)-3-[4-(7H-pyrrolo[2,3-d]pyrimidin-4-yl)-1H-pyrazol-1-yl]azetidin-1-yl}-N-[4-(trifluoromethoxy)phenyl]piperidine-1-carboxamide] — lower, 3.7
- N#CCC1(n2cc(-c3ncnc4[nH]ccc34)cn2)CN(C2CCN(S(=O)(=O)c3ccc(C#N)cc3)CC2)C1 [Example 249, 4-[(4-{3-(cyanomethyl)-3-[4-(7H-pyrrolo[2,3-d]pyrimidin-4-yl)-1H-pyrazol-1-yl]azetidin-1-yl}piperidin-1-yl)sulfonyl]benzonitrile] — lower, 2.1
- N#CCC1(n2cc(-c3ncnc4[nH]ccc34)cn2)CN(C2CCN(Cc3cc(Cl)cc(Cl)c3)CC2)C1 [Example 210, {1-[1-(3,5-dichlorobenzyl)piperidin-4-yl]-3-[4-(7H-pyrrolo[2,3-d]pyrimidin-4-yl)-1H-pyrazol-1-yl]azetidin-3-yl}acetonitrile] — higher, 4.3
- N#CCC1(n2cc(-c3ncnc4[nH]ccc34)cn2)CN(C2CCN(C(=O)Nc3ccc(F)c(F)c3)CC2)C1 [Example 176, 4-{3-(cyanomethyl)-3-[4-(7H-pyrrolo[2,3-d]pyrimidin-4-yl)-1H-pyrazol-1-yl]azetidin-1-yl}-N-(3,4-difluorophenyl) piperidine-1-carboxamide] — higher, 5.1
- COc1c(F)c(F)cc(C(=O)N2CCC(N3CC(CC#N)(n4cc(-c5ncnc6[nH]ccc56)cn4)C3)CC2)c1F [Example 32, {3-[4-(7H-pyrrolo[2,3-d]pyrimidin-4-yl)-1H-pyrazol-1-yl]-1-[1-(2,4,5-trifluoro-3-methoxybenzoyl)piperidin-4-yl]azetidin-3-yl}acetonitrile] — higher, 4.4
